Assay results reported in US11053243B2 (Merck Sharp & Dohme Corp., priority 2009, dated 2021).

The compounds below were run on HCV genotype 1b replicon (assay: HCV replicon assay, genotype 1b). Conditions: Hepatitis C virus; genotype 1b replicon cells, 24 to 72 hours incubation, luciferase activity.
Type: cell-based, hepatitis C virus
Description: The HCV replicons and NS5A inhibitory activity of the present compounds may be tested using assays known in the art. HCV inhibitors, such as those described in the Examples herein have activities in genotype 1b, 2a and 1a replicon assays of from about 1 pM to about 1 μM. The assay is performed by incubating a replicon harboring cell-line in the presence of inhibitor for a set period of time and measuring the effect of the inhibitor on HCV replicon replication either directly by quantifying replicon RNA level, or indirectly by measuring enzymatic activity of a co-encoded reporter enzyme such as luciferase or β-lactamase. By performing a series of such measurements at different inhibitor concentrations, the effective inhibitory concentration of the inhibitor (EC50 or EC90) is determined. See Jan M. Vrolijk et al., A replicons-based bioassay for the measurement of interferons in patients with chronic hepatitis C, 110 J. VIROLOGICAL METHODS 201 (2003). Such assays may also be run in an automated format for high through-put screening. See Paul Zuck et al., A cell-based β-lactamase reporter gene assay for the identification of inhibitors of hepatitis C virus replication, 334 ANALYTICAL BIOCHEMISTRY 344 (2004).
Measurement of inhibition by compounds was performed using the HCV replicon system. Several different replicons encoding different HCV genotypes or mutations were used. In addition, potency measurements were made using different formats of the replicon assay, including different ways of measurements and different plating formats. See Jan M. Vrolijk et al., A replicons-based bioassay for the measurement of interferons in patients with chronic hepatitis C, 110 J. VIROLOGICAL METHODS 201 (2003); Steven S. Carroll et al., Inhibition of Hepatitis C Virus RNA Replication by 2′-Modified Nucleoside Analogs, 278(14) J. BIOLOGICAL CHEMISTRY 11979 (2003). However, the underlying principles are common to all of these determinations, and are outlined below.
Stable neomycin phosphotransferase encoding replicon-harboring cell lines were used, so all cell lines were maintained under G418 selection prior to the assay. In some cases, the cell lines encoded a luciferase:Neor fusion and could be assayed either directly by determination of RNA copy number, or indirectly through measurement of the luciferase activity.
To initiate an assay, replicon cells were plated in the presence of a dilution series of test compound in the absence of G418. Typically, the assays were performed in a 96-well plate format for manual operation, or a 384-well plate in an automated assay. Replicon cells and compound were incubated for 24 to 72 hours. At the end of the assay, cells are washed free of media and compound and then lysed. Luciferase activity was measured using a conventional luciferase assay. EC50 determinations were calculated as a percent of a DMSO control by fitting the data to a four parameter fit function.
The activity table below provides representative data illustrating observed activity against genotype 1b.

Compared with `O=C(Nc1ccc(-c2[nH]c3ccc(NC(=O)[C@@H]4CCCN4C(=O)Cc4ccccc4)cc3c2F)cc1)[C@@H]1CCCN1C(=O)Cc1ccccc1` [Example 129, (2S)-N-{4-[3-fluoro-5-({[(2S)-1-(phenylacetyl)pyrrolidin-2-yl]carbonyl}amino)-1H-indol-2-yl]phenyl}-1-(phenylacetyl) pyrrolidine-2-carboxamide], `O=C(Nc1ccc(-c2[nH]c3ncc(NC(=O)[C@@H]4CCCN4C(=O)Cc4ccccc4)cc3c2Cl)cc1)[C@@H]1CCCN1C(=O)Cc1ccccc1` [Example 6, (2S)—N-{3-chloro-2-[4-({[(2S)-1-(phenylacetyl)pyrrolidin-2-yl]carbonyl}amino)phenyl]-1H-pyrrolo[2,3-b]pyridin-5-yl}-1-(phenylacetyl)pyrrolidine-2-carboxamide] is 290-fold higher in EC50: 0.7 nM for the first, 200 nM for the second.

Compared with `O=C(Nc1ccc(-c2cc3nc(NC(=O)[C@@H]4CCCN4C(=O)Cc4ccccc4)ccc3[nH]2)cc1)[C@@H]1CCCN1C(=O)Cc1ccccc1` [Example 2, (2S)-1-(phenylacetyl)-N-{2-[4-({[(2S)-1-(phenylacetyl)pyrrolidin-2-yl]carbonyl}amino)phenyl]-1H-pyrrolo[3,2-b]pyridin-5-yl}pyrrolidine-2-carboxamide], `O=C(Nc1cnc(-c2cc3cc(NC(=O)[C@@H]4CCCN4C(=O)Cc4ccccc4)ccc3[nH]2)nc1)[C@@H]1CCCN1C(=O)Cc1ccccc1` [Example 42] is 1.6-fold higher in EC50: 9 nM for the first, 14 nM for the second.

Compared with `CC(C)(C)OC(=O)N[C@@H](C(=O)N1CCC[C@H]1C(=O)Nc1ccc2[nH]c(-c3ccc(NC(=O)[C@@H]4CCCN4C(=O)Cc4ccccc4)cc3)cc2c1)c1ccccc1` [Example 41], `CC(C)(C)OC(=O)N[C@H](C(=O)N1CCC[C@H]1C(=O)Nc1ccc(-c2cc3cc(C#N)ccc3[nH]2)cc1)c1ccccc1` [Example 186, tert-butyl {(1S)-2-[(2S)-2-{[4-(5-cyano-1H-indol-2-yl)phenyl]carbamoyl}pyrrolidin-1-yl]-2-oxo-1-phenylethyl}carbamate] is 3.3-fold lower in EC50: 0.05 nM for the first, 0.015 nM for the second. The second is the more potent here.

Going from `CN(C)[C@H](C(=O)N1CCC[C@H]1C(=O)Nc1ccc2[nH]c(-c3ccc(-c4cnc([C@@H]5CCCN5C(=O)[C@H](c5ccccc5)N(C)C)[nH]4)cc3)cc2c1)c1ccccc1` [Example 103, 1-[(2S)-2-(dimethylamino)-2-phenylacetyl]-N-{2-[4-(2-{(2S)-1-[(2S)-2-(dimethylamino)-2-phenylacetyl]pyrrolidin-2-yl}-1H-imidazol-5-yl)phenyl]-1H-indol-5-yl}-L-prolinamide] to `CCN(CC)[C@@H](C(=O)N1CCC[C@H]1C(=O)Nc1ccc2[nH]c(-c3ccc(-c4nnc([C@@H]5CCCN5C(=O)[C@@H](c5ccccc5)N(CC)CC)o4)cc3)cc2c1)c1ccccc1` [Example 191, 1-[(2R)-2-(diethylamino)-2-phenylacetyl]-N-{2-[4-(5-{(2S)-1-[(2R)-2-(diethylamino)-2-phenylacetyl]pyrrolidin-2-yl}-1,3,4-oxadiazol-2-yl)phenyl]-1H-indol-5-yl}-L-prolinamide], the EC50 falls from 5.7 nM to 0.02 nM (280-fold). The second is the more potent here.

First: COC(=O)N[C@H](C(=O)N1CCC[C@H]1c1ncc(-c2ccc3c(c2)OCn2c-3cc3cc(-c4cnc([C@@H]5CCCN5C(=O)[C@@H](NC(=O)OC)C(C)C)[nH]4)ccc32)[nH]1)C(C)C [Example 189a, methyl [(2S)-1-{(2S)-2-[5-(10-{2-[(2S)-1-{(2S)-2-[(methoxycarbonyl)amino]-3-methylbutanoyl}pyrrolidin-2-yl]-1H-imidazol-5-yl}indolo[1,2-c] [1,3]benzoxazin-3-yl)-1H-imidazol-2-yl]pyrrolidin-1-yl}-3-methyl-1-oxobutan-2-yl]carbamate]
Second: CN(C)[C@@H](C(=O)N1CCC[C@H]1C(=O)Nc1ccc2c(c1)CCCc1c-2[nH]c2ccc(NC(=O)[C@@H]3CCCN3C(=O)[C@@H](c3ccccc3)N(C)C)cc12)c1ccccc1 [Example 95, (2S,2′S)-N,N′-5,6,7,12-tetrahydrobenzo[6,7]cyclohepta[1,2-b]indole-3,9-diylbis{1-[(2R)-2-(dimethylamino)-2-phenylacetyl]pyrrolidine-2-carboxamide}]
The EC50 of the first is 15-fold higher: 0.15 nM for the first, 0.01 nM for the second. The second is the more potent here.

First: CCN(CC)[C@@H](C(=O)N1CCC[C@H]1C(=O)Nc1ccc2oc(-c3ccc(NC(C)=O)cc3)cc2c1)c1ccccc1 [Example 30]
Second: CC(=O)NCC#Cc1cc2cc(NC(=O)[C@@H]3CCCN3C(=O)[C@H](NC(=O)OC(C)(C)C)c3ccccc3)ccc2[nH]1 [Example 178, tert-butyl {(1R)-2-[(2S)-2-({2-[3-(acetylamino)prop-1-yn-1-yl]-1H-indol-5-yl}carbamoyl)pyrrolidin-1-yl]-2-oxo-1-phenylethyl}carbamate]
The EC50 of the first is 12-fold lower: 26 nM for the first, 317 nM for the second.
